Laboratory results: PubChem BioAssay AID248 (DTP/NCI, 2004)
Several values for one entry are separate records, joined by “and”; a condition that tells them apart may be missing. Equal entries are not always repeated. Toxic doses and inconclusive results are not listed. Cut-off read from the data, not from the text of the source: active = T/C of 150% or more; inactive = T/C below 125%.

Tested on: L1210 leukemia ip in BDF1 mice, survival T/C
Assay: NCI In Vivo Anticancer Drug Screen. Data for tumor model L1210 Leukemia (intraperitoneal) in B6D2F1 (BDF1) mice
Settings: endpoint: mean survival time, higher = longer survival
In short: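 Tumor was transplanted into mice, which were then dosed with test compound or vehicle alone. Survival was recorded for each group, and the treated figure was expressed relative to the control figure.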

[1] = dose: 100.0 mg/kg/injection, schedule: Q01DX009 (ip), vehicle: saline
[2] = dose: 100.0 mg/kg/injection, schedule: Q04DX003 (ip), vehicle: saline
[3] = dose: 200.0 mg/kg/injection, schedule: Q01DX009 (ip), vehicle: saline
[4] = dose: 200.0 mg/kg/injection, schedule: Q04DX003 (ip), vehicle: saline
[5] = dose: 400.0 mg/kg/injection, schedule: Q01DX009 (ip), vehicle: saline
[6] = dose: 400.0 mg/kg/injection, schedule: Q04DX003 (ip), vehicle: saline
[7] = dose: 100.0 mg/kg/injection, schedule: Q01DX001 (ip), vehicle: carboxymethylcellulose (CMC)
[8] = dose: 100.0 mg/kg/injection, schedule: Q01DX009 (ip), vehicle: carboxymethylcellulose (CMC)
[9] = dose: 200.0 mg/kg/injection, schedule: Q01DX001 (ip), vehicle: carboxymethylcellulose (CMC)
[10] = dose: 200.0 mg/kg/injection, schedule: Q01DX009 (ip), vehicle: carboxymethylcellulose (CMC)
[11] = dose: 400.0 mg/kg/injection, schedule: Q01DX001 (ip), vehicle: carboxymethylcellulose (CMC)
[12] = dose: 100.0 mg/kg/injection, schedule: Q04DX003 (ip), vehicle: Klucel (hydroxypropylcellulose) (HPC)
[13] = dose: 200.0 mg/kg/injection, schedule: Q04DX003 (ip), vehicle: Klucel (hydroxypropylcellulose) (HPC)
[14] = dose: 400.0 mg/kg/injection, schedule: Q04DX003 (ip), vehicle: Klucel (hydroxypropylcellulose) (HPC)
[15] = dose: 50.0 mg/kg/injection, schedule: Q01DX009 (ip), vehicle: saline with Tween-80
[16] = dose: 100.0 mg/kg/injection, schedule: Q01DX009 (ip), vehicle: saline with Tween-80
[17] = dose: 200.0 mg/kg/injection, schedule: Q01DX009 (ip), vehicle: saline with Tween-80
[18] = dose: 100.0 mg/kg/injection, schedule: Q01DX001 (ip), vehicle: saline
[19] = dose: 200.0 mg/kg/injection, schedule: Q01DX001 (ip), vehicle: saline
[20] = dose: 400.0 mg/kg/injection, schedule: Q01DX001 (ip), vehicle: saline
[21] = dose: 100.0 mg/kg/injection, schedule: Q04DX002 (ip), vehicle: saline
[22] = dose: 100.0 mg/kg/injection, schedule: Q04DX003 (ip), vehicle: saline with Tween-80
[23] = dose: 400.0 mg/kg/injection, schedule: Q04DX003 (ip), vehicle: saline with Tween-80
[24] = dose: 100.0 mg/kg/injection, schedule: Q01DX009 (ip), vehicle: Klucel (hydroxypropylcellulose) (HPC)
[25] = dose: 200.0 mg/kg/injection, schedule: Q01DX009 (ip), vehicle: Klucel (hydroxypropylcellulose) (HPC)
[26] = dose: 400.0 mg/kg/injection, schedule: Q01DX009 (ip), vehicle: Klucel (hydroxypropylcellulose) (HPC)
[27] = dose: 100.0 mg/kg/injection, schedule: Q04DX002 (ip), vehicle: Klucel (hydroxypropylcellulose) (HPC)
[28] = dose: 200.0 mg/kg/injection, schedule: Q04DX002 (ip), vehicle: Klucel (hydroxypropylcellulose) (HPC)
[29] = dose: 400.0 mg/kg/injection, schedule: Q04DX002 (ip), vehicle: Klucel (hydroxypropylcellulose) (HPC)

Measured: T/C

COC(C)C(OC)OC (stereo not given)
inactive: [1] 98 % of control | [2] 101 % of control | [3] 96 % of control | [4] 103 % of control | [5] 96 % of control | [6] 92 % of control

N#CCCN(C(=O)Nc1cccc(C(F)(F)F)c1)C1CCCCC1
inactive: [7] 100 % of control and 103 % of control | [8] 90 % of control | dose: 100.0 mg/kg/injection, schedule: Q04DX002 (ip), vehicle: carboxymethylcellulose (CMC) 93 % of control and 89 % of control | dose: 100.0 mg/kg/injection, schedule: Q04DX003 (ip), vehicle: carboxymethylcellulose (CMC) 100 % of control and 103 % of control | [9] 96 % of control and 100 % of control | [10] 90 % of control | dose: 200.0 mg/kg/injection, schedule: Q04DX002 (ip), vehicle: carboxymethylcellulose (CMC) 93 % of control | dose: 200.0 mg/kg/injection, schedule: Q04DX003 (ip), vehicle: carboxymethylcellulose (CMC) 93 % of control | [11] 92 % of control and 102 % of control | dose: 400.0 mg/kg/injection, schedule: Q04DX002 (ip), vehicle: carboxymethylcellulose (CMC) 86 % of control | dose: 400.0 mg/kg/injection, schedule: Q04DX003 (ip), vehicle: carboxymethylcellulose (CMC) 95 % of control

CCC(C(=O)c1ccc(Cl)cc1)C(O)(C(F)(F)F)C(F)(F)F (stereo not given)
inactive: dose: 100.0 mg/kg/injection, schedule: Q01DX001 (ip), vehicle: Klucel (hydroxypropylcellulose) (HPC) 95 % of control | [12] 102 % of control | dose: 200.0 mg/kg/injection, schedule: Q01DX001 (ip), vehicle: Klucel (hydroxypropylcellulose) (HPC) 98 % of control | [13] 98 % of control | dose: 400.0 mg/kg/injection, schedule: Q01DX001 (ip), vehicle: Klucel (hydroxypropylcellulose) (HPC) 112 % of control | [14] 93 % of control

CC(=O)Oc1ccc(-c2ccc(Cl)cc2)cc1
inactive: [7] 103 % of control | [9] 109 % of control | [11] 97 % of control

CC12CCC(CC1)C2CO (stereo not given)
inactive: [15] 105 % of control | [16] 98 % of control

CN(C)N=Nc1c(Cl)cc(Cl)cc1Cl
inactive: [15] 107 % of control | [16] 100 % of control | [17] 107 % of control

NC(Cc1cc(Br)c(O)c(Br)c1)C(=O)O (stereo not given)
inactive: [18] 97 % of control | [1] 90 % of control | [2] 103 % of control | [19] 97 % of control | [3] 109 % of control | [4] 98 % of control | [20] 91 % of control | [5] 93 % of control | [6] 97 % of control

CCOC(=O)Oc1ccc(Br)cc1Br
inactive: [18] 104 % of control | [8] 93 % of control and 96 % of control | [21] 99 % of control | [2] 103 % of control | [19] 102 % of control | [10] 94 % of control and 97 % of control | dose: 200.0 mg/kg/injection, schedule: Q04DX002 (ip), vehicle: saline 92 % of control | [4] 95 % of control | [20] 104 % of control | dose: 400.0 mg/kg/injection, schedule: Q01DX009 (ip), vehicle: carboxymethylcellulose (CMC) 92 % of control and 93 % of control | dose: 400.0 mg/kg/injection, schedule: Q04DX002 (ip), vehicle: saline 104 % of control | [6] 102 % of control

CC(N)Cc1ccc2c(c1)OCO2 (stereo not given)
inactive: dose: 6.0 mg/kg/injection, schedule: Q01DX009 (ip), vehicle: saline 104 % of control | dose: 6.25 mg/kg/injection, schedule: Q01DX009 (ip), vehicle: saline 103 % of control | dose: 12.0 mg/kg/injection, schedule: Q01DX009 (ip), vehicle: saline 98 % of control | dose: 12.5 mg/kg/injection, schedule: Q01DX009 (ip), vehicle: saline 93 % of control | dose: 25.0 mg/kg/injection, schedule: Q01DX009 (ip), vehicle: saline 106 % of control and 98 % of control and 102 % of control | dose: 25.0 mg/kg/injection, schedule: Q04DX003 (ip), vehicle: saline 103 % of control and 96 % of control | dose: 50.0 mg/kg/injection, schedule: Q01DX009 (ip), vehicle: saline 108 % of control | dose: 50.0 mg/kg/injection, schedule: Q04DX003 (ip), vehicle: saline 103 % of control and 97 % of control | [12] 93 % of control | [2] 110 % of control

CCCCCCCCCCCCCCCCSc1ccc(Br)cc1
inactive: [22] 92 % of control | dose: 200.0 mg/kg/injection, schedule: Q04DX003 (ip), vehicle: saline with Tween-80 102 % of control | [23] 97 % of control

CSc1ccc(NC(=O)Nc2cccc(C(C)=O)c2)cc1
inactive: [24] 97 % of control | [25] 94 % of control | [26] 91 % of control

CC1(C)N=C(SCC(=O)c2ccccc2)NC1(C)C
inactive: dose: 25.0 mg/kg/injection, schedule: Q04DX002 (ip), vehicle: saline 101 % of control | dose: 50.0 mg/kg/injection, schedule: Q04DX002 (ip), vehicle: saline 101 % of control | [21] 101 % of control

O=C1CC(Nc2ccccc2)C(=O)N1c1cccc2ccccc12 (stereo not given)
inactive: [24] 102 % of control | [25] 96 % of control | [26] 91 % of control

COC1/C=C\CC2=CCCC=C2CC1 (stereo not given)
inactive: [15] 112 % of control | [16] 123 % of control | [17] 105 % of control

CCOC(=O)c1cnccc1C#N
inactive: [27] 88 % of control | [28] 100 % of control | [29] 100 % of control

CCOC(=O)C(C)C1(O)CCCCC1 (stereo not given)
inactive: [1] 98 % of control | [3] 95 % of control | [5] 98 % of control

COc1ccc(NC(=O)Oc2ccc(Cl)c(C)c2)c(OC)c1
inactive: [1] 118 % of control | [3] 114 % of control | [5] 108 % of control

CC/C(C)=N\O
inactive: dose: 50.0 mg/kg/injection, schedule: Q01DX001 (ip), vehicle: saline 112 % of control | [18] 101 % of control | [19] 93 % of control | [20] 95 % of control

O=C(O)Cc1nc2ccccc2n1CC(=O)O
inactive: [27] 96 % of control | [28] 93 % of control | [29] 100 % of control

Cc1ccc(C(=O)Nc2c(N)ncnc2N)cc1[N+](=O)[O-]
inactive: dose: 75.0 mg/kg/injection, schedule: Q01DX001 (ip), vehicle: saline with Tween-80 101 % of control | dose: 150.0 mg/kg/injection, schedule: Q01DX001 (ip), vehicle: saline with Tween-80 98 % of control | dose: 300.0 mg/kg/injection, schedule: Q01DX001 (ip), vehicle: saline with Tween-80 102 % of control

O=C(COC1CCCCC1)OC1CCCCC1
inactive: [16] 95 % of control | [22] 98 % of control | [17] 96 % of control | dose: 400.0 mg/kg/injection, schedule: Q01DX009 (ip), vehicle: saline with Tween-80 94 % of control | [23] 86 % of control

c1ccc(P(CN(CCN(CP(c2ccccc2)c2ccccc2)CP(c2ccccc2)c2ccccc2)CP(c2ccccc2)c2ccccc2)c2ccccc2)cc1
inactive: dose: 100.0 mg/kg/injection, schedule: Q04DX002 (sc), vehicle: olive oil, sesame oil, peanut oil 100 % of control | dose: 200.0 mg/kg/injection, schedule: Q04DX002 (sc), vehicle: olive oil, sesame oil, peanut oil 110 % of control | dose: 400.0 mg/kg/injection, schedule: Q04DX002 (sc), vehicle: olive oil, sesame oil, peanut oil 107 % of control

CCCCCCCCCC(O)CC (stereo not given)
inactive: [24] 106 % of control | [12] 103 % of control | [25] 102 % of control | [13] 103 % of control | [26] 105 % of control | [14] 103 % of control
